Among the data in publication PMC9928189 (ACS catalysis, 2022) are X-ray crystal structure values, retold here.

Positions count from the first letter of the chain named.

Holding throughout (test): X-ray crystal structure
Common to all, as to format: binding

In experiment [1] the target is T1, MroM-A1 (Mycena rosella, UniProt A0A9X9ZA27).
T1 sequence (A0A9X9ZA27 4-400): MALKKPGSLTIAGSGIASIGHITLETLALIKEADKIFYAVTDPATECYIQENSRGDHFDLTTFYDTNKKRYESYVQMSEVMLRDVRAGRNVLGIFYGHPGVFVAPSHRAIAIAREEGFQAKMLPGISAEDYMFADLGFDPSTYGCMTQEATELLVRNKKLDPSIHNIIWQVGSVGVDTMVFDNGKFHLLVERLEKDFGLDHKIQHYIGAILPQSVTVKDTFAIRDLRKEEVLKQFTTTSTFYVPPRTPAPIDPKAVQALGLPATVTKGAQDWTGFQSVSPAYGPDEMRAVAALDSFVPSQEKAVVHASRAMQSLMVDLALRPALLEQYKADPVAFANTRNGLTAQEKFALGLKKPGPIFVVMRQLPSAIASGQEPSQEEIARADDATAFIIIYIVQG
To be noted: 1.79 Å; core peptide A1 fused and N-methylated.

Experiment [2] has as its target T2, MroM-CspL (Mycena rosella, UniProt A0A9X9ZA30).
T2 sequence (A0A9X9ZA30 4-402): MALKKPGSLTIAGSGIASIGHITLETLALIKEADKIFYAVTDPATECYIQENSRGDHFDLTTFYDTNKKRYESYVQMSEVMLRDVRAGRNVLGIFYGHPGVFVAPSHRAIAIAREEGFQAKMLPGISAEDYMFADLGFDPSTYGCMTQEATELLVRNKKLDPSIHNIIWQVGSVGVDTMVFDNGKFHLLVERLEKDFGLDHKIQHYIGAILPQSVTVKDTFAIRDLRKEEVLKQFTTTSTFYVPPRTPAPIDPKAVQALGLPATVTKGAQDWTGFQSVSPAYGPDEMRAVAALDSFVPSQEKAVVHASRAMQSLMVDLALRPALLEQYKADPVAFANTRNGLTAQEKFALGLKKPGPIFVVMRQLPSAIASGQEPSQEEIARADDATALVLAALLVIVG
Conditions: 1.93 Å; cyclosporin-like core fused and N-methylated.

The target of experiment [3] is T3, MroM-A2 (Mycena rosella, UniProt A0A9X9ZA29).
T3 sequence (A0A9X9ZA29 4-400): T1 sequence (A0A9X9ZA27 4-400) with F389L, I390A, I391L, I392V, Y393V, I394V, V395I, Q396V, G397Q
To be noted: 1.86 Å; core peptide A2 fused and N-methylated.

`Nc1ncnc2c1ncn2[C@@H]1O[C@H](CSCC[C@H](N)C(=O)O)[C@@H](O)[C@H]1O` [S-adenosylhomocysteine]: the X-ray crystal structure result in experiment [1], in experiment [2] and in experiment [3] was “Each structure was determined in complex with product S-adenosylhomocysteine (SAH)” throughout.
